The text below walks through data of patent US10898504B2, “Substituted nucleoside analogues for use as PRMT5 inhibitors” (Janssen Pharmaceutica NV, priority 2016, dated 2021).

Several values for one entry are separate records, joined by “and”; a condition that tells them apart may be missing. Equal values may be shown once.

Assay [1] relates to A549 cells. As to the kind of experiment: PD assay (Assay 2): inhibition of nuclear symmetric Arginine dimethylation (SYM10 immunohistochemistry) in A549 cells. It is filed as cell-based. The conditions noted are these: individual measurements shown; for IC50: Homo sapiens, A549, PD assay in A549 cells, read-out: pIC50 Assay 2 (converted); for pIC50 Assay 2: PD assay in A549 cells. The method, then: EXPERIMENTAL PROCEDURE PD ASSAY (ASSAY 2)
A549 cells (ATCC, Cat #CCL-185) were cultured in Dulbecco's Modified Eagle's Medium (DMEM) (Sigma, Cat #D5796), supplemented with 10% Fetal Calf Serum (FCS)(HyClone™, Cat #SV30160.03), 100 mM Sodium Pyruvate (Sigma, Cat #S8636), 200 mM L-Glutamine (Sigma, Cat #G7513) and 50 mg/mL Gentamycing (Gibco, Cat #15750-037).
Reagents used for buffers were purchased: Dulbecco's phosphate buffered saline (DPBS) without Ca/Mg (Sigma, Cat #D8537), phosphate buffered saline (PBS) 10× (Roche, Cat #11 666 789 001), Formalin solution 10% (Sigma, HT50-1-128-4L), MeOH 100% (Sigma, Cat #32213-2.5L), Triton X-100 (Acros, Cat #215680010), Bovine Serum Albumin (BSA) (Sigma, Cat #A2153), Alexa fluor 488 goat anti-rabbit antibody (Life Technologies, Cat #A11034), HCS CellMask Deep Red Stain (Life Technologies, Cat #H32721), Hoechst Stain (Life Technologies, Cat #33258), Anti-dimethyl-Arginine, sym (SYM10) antibody (Millipore, 07-412).
Immunohistochemistry Procedure
Cells were plated at 400 cells/40 μL/well in 384 well black plates μclear bottom (Perkin Elmer) and overnight incubated at 37° C., 5% CO2. The IC50 Studies were performed using nine point dosing series ranging from 10 μM to […] for each compound. 80 nL of the respective dilution of the compounds was added using the Labcyte POD 810 (Labcyte) reaching a final DMSO concentration of 0.2% in cell culture. After an incubation period of 48 h at 37° C. and 5% CO2, cells were fixed in 10% formalin solution for 15 min at r.t. and 20 min in ice-cold MeOH, after which they were washed 3× in DPBS. Subsequently, the cells were blocked for 1 h in blocking buffer (PBS+1% BSA and 0.5% Triton X-100) and incubated overnight at 4° C. with the SYM10 antibody diluted 1/2000 in blocking buffer. The cells were washed 3× with washing buffer (PBS+0.1% Triton X-100) and incubated with the Alexa fluor 488 goat anti-rabbit antibody diluted 1/200 in blocking buffer for 1 h at r.t. Subsequently, they were washed 3× with washing buffer and incubated for 30 min at r.t. with PBS containing a 1/5000 dilution of Hoechst Stain and a 1/5000 dilution of the HCS CellMask Deep Red Stain. After a final wash with PBS, the plates were imaged using the 10×W lens of the Opera® system (Perkin Elmer Life Sciences) using following settings (values in nm):
In the above equations, the following variable names are use: […]
In the above equations, the following controls were used for normalization: […]
Low control: minimum level of symmetrically dimethylated Arginines (cells treated with reference compound at 10 μM).
High control: maximum level of symmetrically dimethylated Arginines (DMSO treated cells).
IC50 and pIC50 (−log IC50) values were calculated using the appropriate software.
pIC50 values (Co. No. means compound number; n.d. means not determined).

The target of assay [2] is T1, PRMT5-MEP50 enzyme (Homo sapiens, UniProt O14744).
T1 construct: One virus expresses full length human PRMT5 with Flag-tag at N-terminus
T1 sequence (O14744 whole entry): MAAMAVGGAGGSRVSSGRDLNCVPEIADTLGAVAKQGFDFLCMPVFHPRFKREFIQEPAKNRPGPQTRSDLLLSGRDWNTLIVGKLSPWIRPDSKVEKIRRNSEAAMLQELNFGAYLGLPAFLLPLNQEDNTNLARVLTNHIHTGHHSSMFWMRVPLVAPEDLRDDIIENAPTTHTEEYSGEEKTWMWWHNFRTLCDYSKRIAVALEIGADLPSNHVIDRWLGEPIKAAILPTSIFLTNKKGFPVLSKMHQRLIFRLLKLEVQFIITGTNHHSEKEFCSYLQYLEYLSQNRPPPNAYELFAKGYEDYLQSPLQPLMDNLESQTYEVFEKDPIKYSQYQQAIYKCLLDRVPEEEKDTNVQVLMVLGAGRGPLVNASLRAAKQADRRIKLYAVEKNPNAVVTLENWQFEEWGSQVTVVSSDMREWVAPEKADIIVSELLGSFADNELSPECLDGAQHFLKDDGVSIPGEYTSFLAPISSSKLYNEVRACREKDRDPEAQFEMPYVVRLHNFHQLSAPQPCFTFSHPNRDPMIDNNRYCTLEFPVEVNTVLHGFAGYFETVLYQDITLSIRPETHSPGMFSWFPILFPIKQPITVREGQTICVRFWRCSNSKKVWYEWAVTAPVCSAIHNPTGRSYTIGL
T1 sequence (Q9BQA1 whole entry partner): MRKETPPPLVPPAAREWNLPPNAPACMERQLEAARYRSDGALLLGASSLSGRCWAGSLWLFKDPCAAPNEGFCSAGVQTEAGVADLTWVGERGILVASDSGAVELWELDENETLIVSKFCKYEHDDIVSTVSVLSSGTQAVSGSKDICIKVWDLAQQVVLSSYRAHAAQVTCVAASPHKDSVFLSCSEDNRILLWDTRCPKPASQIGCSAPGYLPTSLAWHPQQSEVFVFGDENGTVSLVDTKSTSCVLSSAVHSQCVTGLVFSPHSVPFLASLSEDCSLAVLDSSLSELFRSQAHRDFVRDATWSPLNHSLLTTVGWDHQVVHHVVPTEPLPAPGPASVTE
As to the kind of experiment: In vitro assay (Assay 1): PRMT5-MEP50 high throughput mass spectrometer assay, inhibition of SAH formation. It is filed as biochemical. The conditions noted are these: individual measurements shown, read-out: pIC50 Assay 1 (converted). From the text:
EXPERIMENTAL PROCEDURES IN VITRO ASSAY (ASSAY 1)
PRMT5-MEP50 enzyme was purchased from Charles River (Argenta). The enzyme complex was produced in insect cells (Sf9) infected simultaneously with two baculoviruses. One virus expresses full length human PRMT5 with Flag-tag at N-terminus, the second virus expresses full length MEP50 with His6-TEV cleavage at N-terminus. The protein was affinity purified using anti-Flag (M2) beads eluted with 3×FLAG peptide, followed by His-Select eluted with 0.5M imidazole. Eluted protein was then dialysed against tris-buffered saline (TBS) (pH 8.0) containing 20% glycerol and 3 mM dithiothreitol (DTT).
Full-length untagged human recombinant histone H2A (residues 1-130, Genbank Accession #NM_021052, MW=14.1 kDa) expressed in E. coli was purchased from Reaction Biology Corporation, Cat #HMT-11-146. Reagents used for making reaction buffer or stopping reaction were purchased including Tris base (Sigma Cat #T-1503), NaCl (Sigma Cat #RGF-3270), MgCl2 (Sigma Cat #M0250), DTT (Invitrogen Cat #15508-013) and Formic Acid (Riedel deHaen, Cat #33015)
High Throughput Mass Spectrometer Assay
PRMT5 catalyzes the sequential methylations of the terminal nitrogen atoms on the guanidine groups of arginine residues within proteins using co-substrate S-adenosyl-L-methionine (AdoMet, SAM), forming mono-methyl (MMA), symmetric-dimethyl arginine (sDMA) and S-adenosyl-L-homocysteine (AdoHcy, SAH). The enzyme activity was determined by following the product SAH formation using high throughput mass spectrometry (Agilent Rapidfire 300 System coupled to a Sciex 4000 series QTrapm triple-quad MS/MS). The reaction buffer was 20 mM Tris-HC, pH 8.5, 50 mM NaCl, 5 mM MgCl2 and 1 mM DTT. The reaction activity was stopped using 1% formic acid (final concentration).
The IC50 Studies were performed using eleven point dosing series made for each compound by serially diluted 1:2 in dimethyl sulfoxide (DMSO), with point 12 being a DMSO control. Compounds were first spotted to plates, and followed by addition of 2 μM SAM and 0.6 μM H2A (histone H2A) solution mixture. The same volume of enzyme solution was added to initiate the enzymatic reactions. The final concentrations of the reaction are at 1 μM SAM, 0.3 μM H2A and 10 nM enzyme. The reaction was incubated at 30° C. for 60 minutes (min) and then quenched by addition of formic acid to a final concentration of 1%. The inhibitions of SAH formation in the presence of compounds were calculated as a percentage of the control relative to the uninhibited reaction as a function of inhibitor concentration. The data were fit as follows: Y=Bottom+(Top−Bottom)/(1+10^((log IC50−X)*h))
where IC50 is the inhibitor concentration (same unit as X) at 50% inhibition and h is the Hill slope. Y is percent of inhibition, X is log of compound concentration. Bottom and Top are the plateaus in same units as Y.

For the compound `CN1CCCC2(C1)CN(C[C@H]1O[C@@H](n3cnc4c(N)ncnc43)[C@H](O)[C@@H]1O)C2` [Compound 12], the IC50 in assay [1] is > 10000 nM; in assay [2], 67600 nM.
In the same order, the values of `CN1CCC2(CCCN2C[C@H]2O[C@@H](n3cnc4c(N)ncnc43)[C@H](O)[C@@H]2O)C1` (stereo partly shown) [Compound 13] are > 10000 nM and 955 nM.
Take `CN1CCC2(CCN(C[C@H]3O[C@@H](n4cnc5c(N)ncnc54)[C@H](O)[C@@H]3O)C2)C1` (stereo partly shown) [Compound 14]: the IC50 was > 10000 nM in assay [1] and 977 nM in assay [2].
In the same order, the values of `CN1CCCC12CCN(C[C@H]1O[C@@H](n3cnc4c(N)ncnc43)[C@H](O)[C@@H]1O)C2` (stereo partly shown) [Compound 15] are > 10000 nM and 29500 nM.
Take `CN1CCC2(CC1)CCN(C[C@H]1O[C@@H](n3cnc4c(N)ncnc43)[C@H](O)[C@@H]1O)C2` [Compound 16]: the IC50 is > 10000 nM in assay [1] and 22400 nM in assay [2].
In the same order, the values of `CN1CC2(CCN2C[C@H]2O[C@@H](n3cnc4c(N)ncnc43)[C@H](O)[C@@H]2O)C1` [Compound 18] are > 10000 nM and 8510 nM.
Regarding `Nc1ncnc2c1ccn2[C@@H]1O[C@H](CN2CCCC23CCNCC3)[C@@H](O)[C@H]1O` [Compound 19], in assay [1], the “pIC50 Assay 2” value is 6.93 and 7.24. Besides, in assay [2], the IC50 was 43.7 nM and 11.5 nM.
In the case of `Nc1ncnc2c1c(F)cn2[C@@H]1O[C@H](CN2CCCC23CCNCC3)[C@@H](O)[C@H]1O` [Compound 24], the IC50 in assay [1] is ~67.6 nM; in assay [2] it was 11.7 nM.
Taken in the same sequence, the figures for `C[C@@]1(O)[C@H](O)[C@@H](CN2CCCC23CCNCC3)O[C@H]1n1cnc2c(N)ncnc21` [Compound 27] were > 10000 nM and 1350 nM.
In the same order, the values of `Cc1nc(N)c2ccn([C@@H]3O[C@H](CN4CCCC45CCNCC5)[C@@H](O)[C@H]3O)c2n1` [Compound 28] are 1150 nM and 26.3 nM.
With `Nc1ncnc2c1ccn2[C@@H]1O[C@H](CN2CC(F)(F)CC23CCNCC3)[C@@H](O)[C@H]1O` [Compound 29], in assay [1], the IC50 is ~60.3 nM and the “pIC50 Assay 2” value is recorded as ~7.35. Besides, the IC50 in assay [2] is 10.2 nM and 7.59 nM.
With `Cc1nc(N)c2ccn([C@@H]3O[C@H](CN4CCCC45CCN(C)CC5)[C@@H](O)[C@H]3O)c2n1` [Compound 30], the IC50 in assay [1] is 1740 nM; in assay [2] it was 200 nM.
Taken in the same sequence, the figures for `Nc1ncnc2c1ccn2[C@@H]1O[C@H](CN2CCOC3(CNC3)C2)[C@@H](O)[C@H]1O` [Compound 31] were ~1450 nM and 39.8 nM.
In the same order, the values of `Nc1ncnc2c1ccn2[C@@H]1O[C@H](CN2CCOC3(CCCNC3)C2)[C@@H](O)[C@H]1O` (stereo partly shown) [Compound 32] are 9120 nM and 4470 nM.
For `Nc1ncnc2c1ccn2[C@@H]1O[C@H](CN2CCCC3(COCCN3)C2)[C@@H](O)[C@H]1O` (stereo partly shown) [Compound 37], the IC50 in assay [1] was 5370 nM; in assay [2] it was 170 nM.
Taken in the same sequence, the figures for `Nc1ncnc2c1ccn2[C@@H]1O[C@H](CN2CCC3(CNCCC3(F)F)C2)[C@@H](O)[C@H]1O` (stereo partly shown) [Compound 38] were 3890 nM and 1620 nM.
Taken in the same sequence, the figures for `Nc1ncnc2c1ccn2[C@@H]1O[C@H](CN2CCCC3(CCNC3)C2)[C@@H](O)[C@H]1O` (stereo partly shown) [Compound 40] were 407 nM and 6.31 nM.
In the same order, the values of `Nc1ncnc2c1ccn2[C@@H]1O[C@H](CN2CC(C(F)(F)F)CC23CCNCC3)[C@@H](O)[C@H]1O` (stereo partly shown) [Compound 41] are > 10000 nM and 5750 nM.
Take `Nc1ncnc2c1ccn2[C@@H]1O[C@H](CN2CCCC3(CNC3)C2)[C@@H](O)[C@H]1O` [Compound 45]: the figures for the IC50 in assay [1] and in assay [2] were ~741 nM and 83.2 nM, respectively.
In the same order, the values of `NCCC1CN(C[C@H]2O[C@@H](n3ccc4c(N)ncnc43)[C@H](O)[C@@H]2O)CCO1` (stereo partly shown) [Compound 47] are > 10000 nM and 692 nM.
In the same order, the values of `NCC1CN(C[C@H]2O[C@@H](n3ccc4c(N)ncnc43)[C@H](O)[C@@H]2O)CCO1` (stereo partly shown) [Compound 48] are ~2570 nM and 145 nM.
As for `NC[C@H]1COCCN1C[C@H]1O[C@@H](n2ccc3c(N)ncnc32)[C@H](O)[C@@H]1O` [Compound 49], the IC50 in assay [1] was ~5130 nM; in assay [2], 120 nM.
Regarding `NCC1CCC(F)(F)CN1C[C@H]1O[C@@H](n2ccc3c(N)ncnc32)[C@H](O)[C@@H]1O` (stereo partly shown) [Compound 50], the values for the IC50 in assay [1] and in assay [2] were 1510 nM and 44.7 nM, respectively.
Taken in the same sequence, the figures for `NCC1CCCN(C[C@H]2O[C@@H](n3ccc4c(N)ncnc43)[C@H](O)[C@@H]2O)C1` (stereo partly shown) [Compound 51] were 1000 nM and 21.4 nM.
As for `NCC1CCCCN1C[C@H]1O[C@@H](n2ccc3c(N)ncnc32)[C@H](O)[C@@H]1O` (stereo partly shown) [Compound 52], the IC50 in assay [1] is ~1120 nM; in assay [2], 10.2 nM.
Taken in the same sequence, the figures for `Nc1ncnc2c1ccn2[C@@H]1O[C@H](CN2CCCC(N)C2)[C@@H](O)[C@H]1O` (stereo partly shown) [Compound 53] were 891 nM and 28.8 nM.
In the same order, the values of `Nc1ncnc2c1ccn2[C@@H]1O[C@H](CN2CCC(N)C2)[C@@H](O)[C@H]1O` (stereo partly shown) [Compound 54] are > 10000 nM and 1550 nM.
For the compound `NCCC1CCN(C[C@H]2O[C@@H](n3ccc4c(N)ncnc43)[C@H](O)[C@@H]2O)C1` (stereo partly shown) [Compound 55], the IC50 in assay [1] was 6170 nM; in assay [2] it was 309 nM.
Turning to `NCC1CCN(C[C@H]2O[C@@H](n3ccc4c(N)ncnc43)[C@H](O)[C@@H]2O)C1` (stereo partly shown) [Compound 56], the IC50 in assay [1] is ~10000 nM; in assay [2] it was 186 nM.
Take `NCC[C@@H]1CCCN1C[C@H]1O[C@@H](n2ccc3c(N)ncnc32)[C@H](O)[C@@H]1O` [Compound 57]: the values for the IC50 in assay [1] and in assay [2] were 158 nM and 11.2 nM, respectively.
